From BigSolDB 2.1

COc1ccc2c(c1)c(CC(=O)O)c(C)n2C(=O)c1ccc(Cl)cc1
Details | solubility (mole fraction)
in PEG-400, 293.15 K | 0.0751
in PEG-400, 298.15 K | 0.0831
in PEG-400, 303.15 K | 0.0923
in PEG-400, 308.15 K | 0.102
in PEG-400, 313.15 K | 0.114
in PEG-400, 318.15 K | 0.127

in water
Details | solubility (mole fraction)
293.15 K | 4.73e-08
298.15 K | 5e-08
303.15 K | 5.31e-08
308.15 K | 5.58e-08
313.15 K | 5.85e-08
318.15 K | 6.16e-08
